What was measured:
fibroid xenografts [1] = assay: Quantitative RT-PCR of fibroid xenografts (Example 1); type: in vivo, SCID/Beige mice; settings: 20 mg/kg daily, 8 weeks
Experimental: Quantitative RT-PCR was performed as previously described. Selected gene expression levels were assessed utilizing the Invitrogen StepOne System, with normalization against 18S. Triplicate reactions were conducted, and relative mRNA expression was calculated using the comparative cycle threshold method (2−ΔΔCt), with results presented as fold change relative to the control group. The primer sequences used are shown in the following Sequence Table: […]

[2] = Tolerability and body weight of xenograft mice (Example 2); settings: 5 mg/kg/three times per week
Experimental: 9-12-weeks-old female ovariectomized SCID/Beige mice (Charles River Laboratories) were implanted with pellets (Innovative Research of America) containing estradiol (0.05 mg/90 d release) and progesterone (25 mg/60 d release) as previously reported (4, 5). […] After two months of treatment animals were sacrificed, and blood was obtained by cardiac puncture.
Briefly, freshly obtained fibroids from hysterectomies was cut aseptically into small pieces (4-5-mm3 cubes) using a razor blade and weighed. Equal weights of the explants from the same patient were implanted in the flank of SCID mice. […] After two months of treatment animals were sacrificed, and blood was obtained by cardiac puncture.

fibroid xenografts [3] = assay: RNA sequencing of fibroid xenografts (Example 1); type: in vivo, SCID/Beige mice; settings: for number of downregulated transcripts (RNAseq) / number of upregulated transcripts (RNAseq): cutoff 1.5 fold, xenografts after two months, n=4 vs 4 vehicle
fibroid xenografts [4] = assay: Quantitative RT-PCR of xenografts (Example 2); type: in vivo, SCID/Beige mice; settings: 5 mg/kg, 8 weeks, n=13
Experimental: Total RNA was extracted from the xenografts using TRIzol (Thermo Fisher Scientific Inc., Waltham, MA). RNA concentration and integrity was determined using a Nanodrop 2000c spectrophotometer (Thermo Scientific, Wilmington, DE) and Agilent 2100 Bioanalyzer (Agilent Technologies, Santa Clara, CA) as previously described (7, 8). Briefly, 2 μg of RNA was reverse transcribed using random primers for selected genes according to the manufacturer's guidelines (Applied Biosystems, Carlsbad, CA). Quantitative RT-PCR was carried out using SYBR gene expression master mix (Applied Biosystems). Reactions were incubated for 10 min at 95° C. followed by 40 cycles for 15 seconds at 95° C. and 1 min at 60° C. The expression levels of selected genes were quantified using Invitrogen StepOne System with FBXW2 (F-box and WD repeat domain containing 2) used for normalization (9). All reactions were run in triplicate and relative mRNA expression was determined using the comparative cycle threshold method (2−ΔΔCq), as recommended by the supplier (Applied Biosystems). Values were expressed as fold change compared to the control group. […]

human fibroid xenograft = assay: Human fibroid xenograft mouse model, tumor weight (Example 1); type: in vivo, ovariectomized CB-17 SCID/Beige mice; settings: 20 mg/kg daily i.p., two months (8 weeks), vs matched vehicle
Source text: Portions of intramural uterine fibroids (2-5 cm diameter) were obtained from hysterectomies performed at Harbor-UCLA Medical Center for symptomatic fibroids (n=10). Prior approval was secured from the Institutional Review Board (18CR-31752-01 R) at the Lundquist Institute. Tissues were exclusively sourced from premenopausal patients who had not been treated with hormonal medications for at least 3 months before surgery. The fibroids used in this study were sourced from African American (n=2) and Hispanic (n=8) women aged between 35-50 years (mean 43±4.8 years). The MED12 mutation status of all fibroids was determined by PCR amplification and Sanger sequencing (Laragen Inc., Culver City, CA, USA). […] Informed consent was obtained from all participants. A segment of each tumor was allocated for in vivo studies, and the remaining tissues were promptly snap-frozen and stored in liquid nitrogen for further analysis as previously described. This selection process for tumors was aimed at minimizing variance among fibroids.

[5] = xenografts, 20 mg/kg daily, two months

SMILES: Cc1ccc(S(=O)(=O)/C=C/C#N)cc1 [Bay 11-7082]
- expression of miR-29c and miR-200c (fibroid xenografts [1]): significant increase
- mRNA expression of SPARC, TDO2, MYD88, TLR6, TLR3, IL6, TNFα, TNFRSF11A, IL1β, COL3A1, FN1, LOX, TGFB3, CCND1, E2F1, CKS2, PRL, ESR1, PGR, VEGFC, PDGFA, HTR1B (fibroid xenografts [1]; n=10): significant decrease
- effect on body weight [2]: no significant effects
- body weight ([2]; vehicle 26.16g±0.49): 25.42 g
- number of downregulated transcripts (RNAseq) (fibroid xenografts [3]): 629
- number of upregulated transcripts (RNAseq) (fibroid xenografts [3]): 374
- number of downregulated transcripts (RNAseq) (fibroid xenografts [3]; listed as Bay): 374
- number of upregulated transcripts (RNAseq) (fibroid xenografts [3]; listed as Bay): 629
- RNAseq: expression of TDO2 and serotonin receptor HTR1B (fibroid xenografts [3]; [5]): significantly inhibited
- RNAseq: expression of growth factors (IGF1, EGF, PDGF, FGF8, PRL, TGFB3) and ECM components (COL3A1, KRT10) (fibroid xenografts [3]; [5]): decrease
- RNAseq: genes of cell proliferation, mitosis, mitotic apparatus, cytokinesis (Ki67, E2F1, CCND1, CCNB1, CCNA2, BUB1, CKS2 and others) (fibroid xenografts [3]; [5]): downregulated
- RNAseq: pro-inflammatory cytokines (IL1a, IL1b, TNF, IL6, IL15, IL7R, TNFRSF11A), TLR3, TLR6, chemokines (CXCCR4, CCR5, CCL3, CCL5) (fibroid xenografts [3]; [5]): downregulation
- RNAseq: vWF, ICAM1, ITGAX, SOX2, CXCL8, IL10, IL13 (fibroid xenografts [3]; xenografts, two months, significant variation among animals): up-regulated
- mRNA expression of COL1A1, COL3A1, FN1, TGF-β3, CCND1, CDK2, E2F1, EZH2, MyD88 and SPARC (fibroid xenografts [4]): significant decrease
- reduction of tumor weight (human fibroid xenograft): 50%

Reference: US20240415801A1, “Methods and Compositions for Treating Fibroids” (Lundquist Institute for Biomedical Innovation at …, priority 2023, published 2024)
